Results from US8389027B2 (priority 2008, dated 2013).

Experiments:
wild-type S. pombe [1] = format: cell-based, Schizosaccharomyces pombe
wild-type S. pombe [2] = test: Estimation of minimum inhibitory concentration for S. pombe; format: cell-based, Schizosaccharomyces pombe; settings: different concentrations, 6 h incubation
Method: Approximately, 1×10^7 cells/ml from overnight grown culture of MBY 104 was inoculated in 20 ml fresh YES medium in 250 ml flasks. The cells were incubated at 25° C. on a shaker in absence or presence of different concentrations of digoxin. A stock of 1 mM standard glycosides (Sigma Aldrich, USA) was prepared by adding 7.8 mg, 3.9 mg, and 7.28 mg of digoxin, digoxigenin, and ouabain, respectively, in 10 ml of 50% ethanol. A working stock of 200 μM solution was prepared by diluting 1 mM stock with fresh YES medium. Further dilutions were made from this working stock by adjusting total volume with YES to 20 ml. Cell density of untreated or treated wild-type yeast cells was checked in terms of absorbance after every one hour over 5 to 6 generations. Experiments were performed in duplicate each time and confirmed by several biological replicates.
Wild-type S. pombe cells were grown in absence or presence of different concentrations of digoxin, digoxigenin, or ouabain and growth kinetics was studied over 6-8 h.

[3] = system: S. pombe strain expressing M. grisea Abc3 (MBY 2838); format: cell-based, Schizosaccharomyces pombe; settings: MBY 2838, compound in growth medium
[4] = system: wild-type M. grisea Guy11 on rice leaf sheath or onion epidermis; format: in vivo, Magnaporthe grisea; settings: summary statement
[5] = system: rice or barley leaf tissue; format: in vivo
[6] = system: Magnaporthe Guy11 on detached barley leaf; format: in vivo, Magnaporthe grisea; settings: 200 μM
Zebra fish larvae heart = format: in vivo, Danio rerio; settings: at 26 (h of treatment); control 12.71

C[C@H]1O[C@@H](O[C@H]2[C@@H](O)C[C@H](O[C@H]3[C@@H](O)C[C@H](O[C@H]4CC[C@@]5(C)[C@H](CC[C@@H]6[C@@H]5C[C@@H](O)[C@]5(C)[C@@H](C7=CC(=O)OC7)CC[C@]65O)C4)O[C@@H]3C)O[C@@H]2C)C[C@H](O)[C@@H]1O [digoxin]
cell density (OD600 nm) of S. pombe, growth kinetics (wild-type S. pombe [1]): inhibitory effects | absorbance of treated S. pombe cells (wild-type S. pombe [2]): decrease in absorbance in a dose dependent manner | effect on S. pombe cells expressing M. grisea Abc3p [3]: did not show any effects | appressorial function of host penetration [4]: blocked appressorial function of host penetration | elicitor-like response in the host plants ([5]; exogenous application to leaf tissue): induced hypersensitive reaction | H2O2 level as Cerium perhydroxide precipitate (CeCl3 staining, TEM) ([5]; treated leaf tissue, 48 h): accumulation of Cerium perhydroxide precipitate in the cell wall and cell membrane | state of host cells upon treatment ([5]; treated leaf tissue, TEM): plasmolysis | disease symptoms on detached barley leaf ([6]; controls symptomatic from day 3): failed to elicit any disease symptoms | disease symptoms, leaves inoculated with 100 conidia per droplet ([6]; 6 dpi, 100 conidia per droplet): did not show any symptoms | severity of disease compared to control leaves ([6]; day 6 post inoculation): significantly reduced | heart rate (time taken for 20 beats) (Zebra fish larvae heart): 13.79 s
